By EC50 is commonly meant the concentration that produces a half-maximal response.

For assay [1], the system named is encephalitogenic CD4+ MBP-specific rat TCL (L1402). The experiment in a line: TNF/LT production by an encephalitogenic MBP-specific rat T-cell line, cytotoxicity bioassay. It is filed as cell-based. The source says: To assess the ability of rolipram alone or in various combinations as described to modify autoimmune processes, we investigated its influence on TNF production in vitro by MBP-specific T-cell lines from MS patients and Lewis rats. MBP is a major candidate antigen in MS, and T-cell-mediated immunity is of crucial importance in its pathogenesis. Similar to EAE, MBP-specific T-cells in humans are often cytotoxic, of Th1 type secreting interferon (IFN)-gamma and TNF/LT, and recognize epitopes that are also encephalitogenic in EAE.
Similar results were found using an encephalitogenic CD4+ MBP-specific rat TCL (L1402). […] Previous investigations had shown that inhibition of cAMP PDE by rolipram is stereospecific.
TNF and LT may both be produced by autoactive T-cells. CD4+ cells have been reported to be the major source of TFN in autoimmune insulitis of NOD mice. The cytokine bioassay for TNF/LT detection employed here is sensitive to TNF and LT, but is 200 times more sensitive to the former.

The subject of assay [2] is mouse and rat forebrain tissue. The note with it: in vitro and in vivo binding with 3H-rolipram; previous investigations; cited from earlier work.
Assay [3] relates to Experimental Allergic Encephalomyelitis (EAE). The experiment in a line: Prevention of EAE by Rolipram treatment in marmosets immunized with human brain white matter homogenate. It is filed as in vivo, Callithrix jacchus (common marmoset). The note with it: treatment removed on day 60 following immunization; two marmosets.
For assay [4] the test system is unchanged. The experiment in a line: Treatment of active (chronic) EAE with Rolipram in a marmoset. It is filed as in vivo, Callithrix jacchus (common marmoset). The note with it: escalating doses of Rolipram in DMSO.
The test system of assay [5] is EAE after active immunization (aEAE). The experiment in a line: EAE after active immunization (aEAE) in Lewis rats. The note with it: drug given from the day of active immunization until day 11. It counts as in vivo. The method, then: (§1) The results of our in vivo findings prompted us to perform treatment experiments in EAE after active immunization (aEAE) and adoptive cell transfer (tEAE) in Lewis rats. […] In clinically manifest EAE, treatment was started within 6 hours of the onset of symptoms. […] In tEAE similar effects were observed. […] Treatment after onset of symptoms also lead to a marked reduction in maximum severity (treated group: MMS 0.7 ± 0.10, n = 5; vehicle treated matched controls 2.45 ± 0.56, n = 5, p 0.01).
In order to distinguish further between a long-term prophylactic or a temporary suppressive effect, animals received the drug from the day of active immunization until day 11.
Histological analysis was performed on selected animals with aEAE. […] In a study on EAE, induced by myelin oligodendrocyte glycoprotein (MOG)-specific T-cells, the lack of neurological signs was ascribed to a decrease of macrophages and parenchymal inflammation, whereas perivascular inflammation and the synthesis of TNF, IFN-gamma, and interleukin-6 was clearly present. In our system, however, the timely onset of paralysis and the morphologically similar appearance of infiltrates in some of the treated animals argues against such a phenomenon. […]

For assay [6], the system named is EAE after adoptive cell transfer (tEAE). The experiment in a line: EAE after adoptive cell transfer (tEAE) in Lewis rats. It is filed as in vivo. The note with it: n = 5. The method, then:
as §1

Structures are written as SMILES.

On to `COc1ccc(C2CNC(=O)C2)cc1OC1CCCC1` (single isomer, unassigned; (+)) [(+)-rolipram], for which, in assay [1] (inhibition of TNF/LT production, given alone), the EC50 worked out at 280 nM.

Turning to `COc1ccc(C2CNC(=O)C2)cc1OC1CCCC1` (single isomer, unassigned; (-)) [(-)-rolipram], the “times more effective than the (+)-enantiomer (inhibition of TNF/LT production)” value in assay [1] came to 55 times. In addition, the “times higher affinity than the (+)-enantiomers” value in assay [2] was 15-30 times.

Take `COc1ccc(C2CNC(=O)C2)cc1OC1CCCC1` (stereo not drawn) [Rolipram, 4-[(3-cyclopentyloxy)-4-methoxyphenyl]-2-pyrrolidinone]: in assay [3], the “day on which clinical signs of EAE began following withdrawal of Rolipram” value was found to be 17 days. In addition, in assay [4], the “day of MRI improvement following initiating Rolipram treatment” value stood at 14 days and the “day of marked improvement after initiating treatment” value amounted to 10 days. Moreover, in assay [5], the “delay of aEAE” value was 3.5 days. The “mean maximum score (MMN)” value in assay [6] (prophylactic treatment, p < 0.01 versus controls) was 0.3 ± 0.11. In addition, the “MMS (maximum severity)” value in assay [6] (treatment after onset of symptoms) is listed as 0.7 ± 0.10.

(Values after EP1380291A1, “PDE IV inhibitors for treating multiple sclerosis” (Schering Aktiengesellschaft, priority 1994, dated 1995).)
